What all share (assay): inhibition of tumour cell growth, NCI panel, 48 h
Assay [1] concerns A498.
The test system of assay [2] is CCRF-CEM.
In assay [3] the test system is HOP-92.
Assay [4] relates to IGROV-1.
In assay [5] the test system is KM12.
Assay [6] concerns LOX IMVI.
Assay [7] concerns MCF7.
Assay [8] concerns MDA-MB-231.
In assay [9] the test system is OVCAR-3.
For assay [10], the system named is OVCAR-5.
In assay [11] the test system is PC-3.
Assay [12] concerns RXF 393.
Assay [13] has as its system SK-MEL-2.
Assay [14] relates to SK-MEL-5.
For assay [15], the system named is SN12C.
Assay [16] relates to SNB-19.
In assay [17] the test system is SNB-75.
The test system of assay [18] is SW-620.
Assay [19] deals with UACC-257.
Assay [20] concerns UO-31.

Each structure is given as a SMILES string.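 A five-concentration, 48-hour dose response in 96-well plates underlies each endpoint, interpolated linearly between surrounding concentrations. GI50 is the concentration that inhibits growth by half.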 Calls of active or inactive are those of the source. Rule as the data show it: active = GI50 up to about 1.1 µM and inactive = higher.

As for `CC(=O)c1sc2c(c1OC(=O)c1ccc(Cl)cc1Cl)c(=O)n(-c1ccccc1)c(=S)n2-c1ccccc1`, the GI50 is 0.286 µM (active) in assay [1]; 0.26 µM (active) in [2]; 0.78 µM (active) in assay [3]; 5.51 µM (inactive) in assay [4]; 4.14 µM (inactive) in assay [5]; 0.321 µM (active) in assay [6]. The GI50 was 8.55 µM (inactive) in [7]; 0.861 µM (active) in assay [8]; 4.14 µM (inactive) in assay [9]; 0.64 µM (active) in assay [10]; 0.608 µM (active) in assay [11]; 0.382 µM (active) in assay [12]. Also, the GI50 was 0.264 µM (active) in assay [13]; 1.8 µM (inactive) in assay [14]; 0.369 µM (active) in [15]; 0.673 µM (active) in assay [16]; 0.472 µM (active) in assay [17]; 3.97 µM (inactive) in assay [18]. For the same compound, the GI50 was 3.88 µM (inactive) in assay [19] and 0.347 µM (active) in [20].

As for `O=C1C(c2c(O)[nH]c3ccc([N+](=O)[O-])cc23)=Nc2ccccc21`, the GI50 is 98.2 µM (inactive) in assay [1]; > 100 µM (inactive) in [2]; > 100 µM (inactive) in [3]; 10 µM (inactive) in assay [4]; > 100 µM (inactive) in assay [5]; > 100 µM (inactive) in [6]. The GI50 in [7] was 57.1 µM (inactive); in assay [8], 31.7 µM (inactive); in assay [9], > 100 µM (inactive); in assay [10], > 100 µM (inactive); in assay [11] it was 83.6 µM (inactive); in [12], 13 µM (inactive). For the same compound, the GI50 in [13] was 43.5 µM (inactive); in [14], > 100 µM (inactive); in assay [15], > 100 µM (inactive); in assay [16], 49.8 µM (inactive); in assay [17] it was 13.8 µM (inactive); in assay [18], > 100 µM (inactive). The GI50 in [19] and in [20] was > 100 µM (inactive) in each case.

Take `CCNC(=O)Cc1nc2c(O)ncnc2n1C1OC(CO)C(O)C1O` (stereo not given): the GI50 in assay [1], in [2], in assay [3], in assay [4], in [5] and in assay [6] was > 100 µM (inactive) throughout. Also, the GI50 in assay [7], in assay [8], in assay [9], in assay [10], in [11] and in assay [12] was > 100 µM (inactive) in each case. Moreover, the GI50 in assay [13], in assay [14], in assay [15], in assay [16], in assay [17] and in assay [18] was > 100 µM (inactive) throughout. For the same compound, the GI50 in [19] and in assay [20] was > 100 µM (inactive) each time.

In the case of `COC1=C(NC(C)=O)C(=O)c2nc3n(c2C1=O)CCC3`, the GI50 in [1] is 23.6 µM (inactive); in assay [2], 3.78 µM (inactive); in [3], 13.2 µM (inactive); in assay [4] it was 19.3 µM (inactive); in assay [5] it was 25.7 µM (inactive); in assay [6] it was 16.1 µM (inactive). Besides, the GI50 in assay [7] was 23.1 µM (inactive); in assay [8] it was 13.3 µM (inactive); in [9], 15.7 µM (inactive); in assay [10] it was 18.7 µM (inactive); in [11], 34.8 µM (inactive); in assay [12], 17.7 µM (inactive). The GI50 in [13] is 17.7 µM (inactive); in assay [14], 17.5 µM (inactive); in [15], 17.9 µM (inactive); in [16], 26.7 µM (inactive); in [17], 17.6 µM (inactive); in [18], 20.9 µM (inactive). The results for the GI50 in assay [19] and in assay [20] were 16.6 µM (inactive) and 24.9 µM (inactive), respectively.

In the case of `O=C(O)Cc1ccc2nc(COC(=O)c3ccccc3)sc2c1`, the GI50 in [1] was > 100 µM (inactive); in [2], < 0.01 µM (active); in assay [3], > 100 µM (inactive); in [4], > 100 µM (inactive); in assay [5] it was > 100 µM (inactive); in [6], > 100 µM (inactive). Besides, the GI50 in assay [7], in assay [8], in assay [9], in assay [10], in assay [11] and in assay [12] was > 100 µM (inactive) throughout. Also, the GI50 in [13], in assay [14], in assay [15], in assay [16], in assay [17] and in assay [18] was > 100 µM (inactive) throughout. Further, the GI50 in [19] and in assay [20] was > 100 µM (inactive) throughout.

`Cc1ccc2[nH]c3c(c2c1)C1CCC(C(C)(C)C)CC1C1C(=O)N(c2ccc(Oc4ccccc4)cc2)C(=O)C31` (stereo not given): the GI50 in [1] is 9.57 µM (inactive); in assay [2] it was 2.63 µM (inactive); in assay [3] it was 14.4 µM (inactive); in [4] it was 30.8 µM (inactive); in assay [5] it was > 100 µM (inactive); in assay [6] it was 24.2 µM (inactive). Moreover, the GI50 was 56.9 µM (inactive) in assay [7]; 20.3 µM (inactive) in assay [8]; 11.5 µM (inactive) in [9]; 26.3 µM (inactive) in assay [10]; 67.9 µM (inactive) in [11]; 7.55 µM (inactive) in assay [12]. Further, the GI50 is 34.9 µM (inactive) in assay [13]; > 92.5 µM (inactive) in [14]; 10.4 µM (inactive) in assay [15]; 16.2 µM (inactive) in assay [16]; 2.32 µM (inactive) in [17]; 19.3 µM (inactive) in assay [18]. In addition, the GI50 in assay [19] was > 100 µM (inactive); in assay [20], 41 µM (inactive).

Turning to `CCC/C(Cl)=N/OC(=O)Nc1cccc(F)c1`, the GI50 was > 10 µM (inactive) in [1]; 0.526 µM (active) in assay [2]; 1.6 µM (inactive) in assay [3]; 13.2 µM (inactive) in assay [4]; 15.7 µM (inactive) in [5]; 1.91 µM (inactive) in [6]. In addition, the GI50 in [7] was 2.77 µM (inactive); in [8], 13.1 µM (inactive); in assay [9], 2.61 µM (inactive); in [10] it was 19.1 µM (inactive); in assay [11], 17 µM (inactive); in assay [12], 3.23 µM (inactive). The GI50 is 18.7 µM (inactive) in assay [13]; 5.79 µM (inactive) in [14]; 6.75 µM (inactive) in assay [15]; 17.9 µM (inactive) in [16]; 3.4 µM (inactive) in assay [17]; 1.8 µM (inactive) in assay [18]. In addition, the GI50 in assay [19] is 14.8 µM (inactive); in assay [20] it was 8.97 µM (inactive).

Take `Clc1ccc2c(NCCNc3ccnc4cc(Cl)ccc34)ccnc2c1`: the GI50 in [1] is 16.9 µM (inactive); in assay [2], 14.6 µM (inactive); in assay [3] it was 15.2 µM (inactive); in assay [4] it was 18.2 µM (inactive); in [5] it was 18.2 µM (inactive); in [6] it was 17.7 µM (inactive). The GI50 in assay [7] was 19.7 µM (inactive); in assay [8], 17 µM (inactive); in assay [9], 15.1 µM (inactive); in [10] it was 16.5 µM (inactive); in [11], 17 µM (inactive); in assay [12], 20 µM (inactive). The GI50 in assay [13] was 18.9 µM (inactive); in assay [14], 22.4 µM (inactive); in assay [15] it was 17.8 µM (inactive); in [16], 20.1 µM (inactive); in assay [17], 21.5 µM (inactive); in assay [18], 13.6 µM (inactive). Further, the GI50 was 17.9 µM (inactive) in assay [19] and 15.7 µM (inactive) in assay [20].

For the origin of these results see ChEMBL document CHEMBL1201862, “PubChem BioAssay data set” (2004).
